The values that follow come from patent US20120076781A1, “METHODS OF TREATING CANCERS WITH HER3 ANTISENSE OLIGONUCLEOTIDES” (ENZON PHARMACEUTICALS, INC., priority 2009, published 2012).

For data set [1], the system named is HCC827R gefitinib resistant cells. The data set is described as follows: Cell proliferation of HCC827R cells under gefitinib (MTT assay). It is filed as cell-based, human. Conditions: highest concentration tested 10 μM. The procedure:
HCC827 lung adenocarcinoma cells (ATCC CRL-2868) were maintained at 37° C. in a humidified atmosphere of 5% CO2 and 95% air in RPMI medium supplemented with 10% fetal bovine serum. To generate gefitinib resistance, cells were treated with increasing amounts of gefitinib (up to 500 nM) for a period of 3 months.
A general note: Tetrazolium dyes change colour on reduction, which living cells bring about.

In data set [2] the test system is human HER3 mRNA. The experiment in a line: Down-regulation of HER3 mRNA in transfected 15PC3 cells, real-time PCR. It is filed as cell-based. Conditions: 25 nM. On the procedure: (§1) 15PC3: The human prostate cancer cell line 15PC3 was cultured in DMEM (Sigma)+10% fetal bovine serum (FBS)+2 mM Glutamax I+gentamicin (25 μg/ml).
(§2) The cells were treated with oligonucleotides using the cationic liposome formulation LipofectAMINE 2000 (Gibco) as transfection vehicle. Cells were seeded in 6-well cell culture plates (NUNC) and treated when 80-90% confluent. Oligomer concentrations ranged from 1 nM to 25 nM final concentration. Formulation of oligomer-lipid complexes was carried out essentially as described by the manufacturer using serum-free OptiMEM (Gibco) and a final lipid concentration of 5 μg/mL LipofectAMINE 2000. Cells were incubated at 37° C. for 4 hours and treatment was stopped by removal of oligomer-containing culture medium. Cells were washed and serum-containing medium was added. After oligomer treatment, cells were allowed to recover for 20 hours before they were harvested for RNA analysis.
(§3) Total RNA was extracted from cells transfected as described above and using the Qiagen RNeasy kit (Qiagen cat. no. 74104) according to the manufacturer's instructions. First strand synthesis was performed using Reverse Transcriptase reagents from Ambion according to the manufacturer's instructions.
(§4) For each sample 0.5 μg total RNA was adjusted to (10.8 μl) with RNase free H2O and mixed with 2 μl random decamers (50 μM) and 4 μl dNTP mix (2.5 mM each dNTP) and heated to 70° C. for 3 min after which the samples were rapidly cooled on ice. After cooling the samples on ice, 2 μl 10× Buffer RT, 1 μl MMLV Reverse Transcriptase (100 U/μl) and 0.25 μl RNase inhibitor (10 U/μl) was added to each sample, followed by incubation at 42° C. for 60 min, heat inactivation of the enzyme at 95° C. for 10 min, and then cooling the sample to 4° C.
(§5) The sample content of human HER3, EGFR and HER2 mRNA was quantified using the human HER3, EGFR and HER2 ABI Prism Pre-Developed TaqMan Assay Reagents (Applied Biosystems cat. no. Hs00951444_ml (HER3), Hs00193306_ml (EGFR) and Hs00170433_ml (HER2) according to the manufacturer's instructions.
(§6) Glyceraldehyde-3-phosphate dehydrogenase (GAPDH) mRNA quantity was used as an endogenous control for normalizing any variance in sample preparation. The sample content of human GAPDH mRNA was quantified using the human GAPDH ABI Prism Pre-Developed TaqMan Assay Reagent (Applied Biosystems cat. no. 4310884E) according to the manufacturer's instructions.
(§7) The cDNA from the first strand synthesis performed as described in Example 5 was diluted 2-20 times, and analyzed by real time quantitative PCR using Taqman 7500 FAST or 7900 FAST from Applied Biosystems. The primers and probe were mixed with 2× Taqman Fast Universal PCR master mix (2×) (Applied Biosystems Cat. #4364103) and added to 4 μl cDNA to a final volume of 10 μl. Each sample was analysed in duplicate. Assaying 2-fold dilutions of a cDNA that had been prepared on material purified from a cell line expressing the RNA of interest generated standard curves for the assays. Sterile H2O was used instead of cDNA for the no-template control. PCR program: 95° C. for 30 seconds, followed by 40 cycles of 95° C., 3 seconds, 60° C., 20-30 seconds. Relative quantities of target mRNA sequence were determined from the calculated Threshold cycle using the Applied Biosystems Fast System SDS Software Version 1.3.1.21. or SDS Software Version 2.3.
(§8) Oligonucleotides presented in Table 4 were evaluated for their potential to down-regulate HER3, EGFR and HER2 mRNA at concentrations of 1, 5 and 25 nM in 15PC3 cells (or HUH-7 as indicated by *) (see FIGS. 2, 3, 4 and 5). SEQ ID NOs: 235 and 236 were used as scrambled controls.
(§9) The data in Table 4 are presented as percentage down-regulation of mRNA relative to mock transfected cells at 25 nM. Lower-case letters represent DNA monomers, bold, upper-case letters represent β-D-oxy-LNA monomers. All cytosines in LNA monomers are 5-methylcytosines. Subscript “s” represents a phosphorothioate linkage.
For orientation: Quantitative PCR measures a nucleic acid by following its amplification.

Another data set deals with human EGFR mRNA. The data set is described as follows: Down-regulation of EGFR mRNA in transfected 15PC3 cells, real-time PCR. It is filed as cell-based. Conditions: 25 nM. The procedure:
as §1, §2, §3, §4, §5, §6, §7, §8, §9

A further data set concerns human HER2 mRNA. The data set is described as follows: Down-regulation of HER2 mRNA in transfected 15PC3 cells, real-time PCR. It is filed as cell-based. Conditions: 25 nM. The procedure: as §1, §2, §3, §4, §5, §6, §7, §8, §9
In a further data set the test system is Mouse HER3 mRNA. The data set is described as follows: HER3 mRNA knockdown in liver of nude mice bearing 15PC3 xenografts, qd x 5 (qRT-PCR). It is filed as in vivo. Conditions: i.v. The procedure:
(§10) To evaluate the knockdown efficacy of the HER3 oligomeric compounds in vivo, the female nude mice bearing 15PC3 xenografts developed by subcutaneous injection of 5×10^6 cells/mouse into the right axillary flank, were injected intravenously with the oligomers at various doses and injection schedules (i.e. single dose, qd, q3d, q4d). Scrambled oligomer SEQ ID NO: 236 served as a negative control. 24 hours after the last injection, the mice were euthanized and liver and tumor tissues were collected in RNAlater solution (Ambion). Total RNA was purified from the tissues and the levels of HER3 mRNA were determined by quantitative reverse transcription-real time PCR (qRT-PCR) using the QuantiTect Probe RT-PCR kit (Cat#: 204443; Qiagen). GAPDH mRNA served as an internal control.
(§11) 200 ng of total RNA was used in the PCR reaction. The data analyses were performed by using the ABI-7500 PCR Fast System included software.
(§12) Data in Table 5 are presented as % HER3 mRNA levels relative to saline treated controls in liver and tumor samples after i.v. dosing of animals on 5 consecutive days with oligonucleotides in the doses indicated.

The test system of data set [3] is human HER3 mRNA. The data set is described as follows: HER3 mRNA knockdown in 15PC3 xenograft tumor in nude mice, qd x 5 (qRT-PCR). It is filed as in vivo. Conditions: 32.4 mg/kg, i.v., relative to saline controls. On the procedure: as §10, §11, §12
In data set [4] the test system is HER3 mRNA. The experiment in a line: HER3 mRNA knockdown in 15PC3 xenograft tumor, different dosing cycle. Conditions: 32.4 x 4 mg/kg i.v., every third day. It is filed as in vivo, human. The procedure: as §10
(§13) The knockdown efficacy of oligomers was evaluated in vivo in nude mice bearing xenograft tumors derived from 15PC3 cells or A549 cells (NSCLC) or N87 cells (gastric carcinoma) using a similar protocol to the one described above in Example 11. Oligomers were administered by injection every third day in 2-4 doses. Tissues were harvested 3 or 4 days after the last injection.
(§14) Data in Tables 6 and 7 are presented as % HER3 mRNA or HIF-1 alpha mRNA relative to saline treated controls in liver and tumor samples after i.v. dosing of animals with the indicated oligomers.
In general terms: In xenograft studies the graft and the host belong to different species.

The test system of a further data set is HIF-1 alpha mRNA. The data set is described as follows: HIF-1 alpha mRNA in 15PC3 xenograft tumor, different dosing cycle. It is filed as in vivo, human. Conditions: 32.4 x 4 mg/kg i.v., every third day. The procedure:
as §10, §13, §14

Data set [5] concerns HER3 mRNA. The experiment in a line: HER3 mRNA knockdown in liver of xenograft-bearing nude mice, different dosing cycle. It is filed as in vivo, mouse. Conditions: 15PC3 xenograft mice, 32.4 x 4 mg/kg i.v., every third day. The procedure: as §10
The knockdown efficacy of oligomers was evaluated in vivo in nude mice bearing xenograft tumors derived from 15PC3 cells or A549 cells (NSCLC) or N87 cells (gastric carcinoma) using a similar protocol to the one described above in Example 11. […] Tissues were harvested 3 or 4 days after the last injection.
as §14

The subject of data set [6] is human HER3 mRNA. The experiment in a line: Down-regulation of HER3 mRNA in transfected HUH-7 cells, real-time PCR. It is filed as cell-based. Conditions: 25 nM, HUH-7 cells (indicated by *). On the procedure: HUH7: The human hepatocarcinoma cell line was cultured in DMEM (Sigma)+10% fetal bovine serum (FBS)+2 mM Glutamax I+gentamicin (25 μg/ml)+1× Non Essential Amino Acids.
The cells were treated with oligonucleotides using the cationic liposome formulation LipofectAMINE 2000 (Gibco) as transfection vehicle. Cells were seeded in 6-well cell culture plates (NUNC) and treated when 80-90% confluent. Oligomer concentrations ranged from 1 nM to 25 nM final concentration. Formulation of oligomer-lipid complexes was carried out essentially as described by the manufacturer using serum-free OptiMEM (Gibco) and a final lipid concentration of 5 μg/mL LipofectAMINE 2000. […]
as §5
Glyceraldehyde-3-phosphate dehydrogenase (GAPDH) mRNA quantity was used as an endogenous control for normalizing any variance in sample preparation. The sample content of human GAPDH mRNA was quantified using the human GAPDH ABI Prism Pre-Developed TaqMan Assay Reagent (Applied Biosystems cat. no. 4310884E) according to the manufacturer's instructions. […]

Marks after values point to notes of the source that are not given here. In the oligonucleotide strings, read from the 5' end, every base follows the letter of its sugar. An asterisk marks phosphorothioate; unmarked linkages are phosphodiester. Other units and linkages are bracketed, terminal groups are in braces. A string of capitals states the bases alone. l = locked nucleic acid (LNA); [5mC] = 5-methylcytosine; d = 2'-deoxy (DNA)

As for `COc1cc2ncnc(Nc3ccc(F)c(Cl)c3)c2cc1OCCCN1CCOCC1` [gefitinib], the “cell proliferation of HCC827R cells under gefitinib” value in data set [1] is given as “resistant to gefitinib even at the highest concentration tested”.

As for “ASGSAScSaStScSaScStScStSgSGSTSG (antisense lA*lG*lA*dC*dA*dT*dC*dA*dC*dT*dC*dT*dG*lG*lT*lG) [SEQ ID NO: 172, β-D-oxy-LNA/DNA phosphorothioate gapmer antisense oligonucleotide targeting HER3]”, in the data set with human HER3 mRNA [2], the “HER3: percentage down-regulation of mRNA relative to mock transfected cells” value is recorded as 84.2%. For the same molecule, the “EGFR: percentage down-regulation of mRNA relative to mock transfected cells” value in the data set on human EGFR mRNA came out at 86.2%. Besides, in the data set with human HER2 mRNA, the “HER2: percentage down-regulation of mRNA relative to mock transfected cells” value was 61%. Moreover, the “HER3 mRNA Liver” value with Mouse HER3 mRNA (9.7 mg/kg) is 12.2 ± 5.9 % of Sal ctrl; with Mouse HER3 mRNA (32.4 mg/kg), 7.4 ± 5.2 % of Sal ctrl. In addition, the “HER3 mRNA Tumor” value in the data set on human HER3 mRNA [3] came out at 78.1 ± 15.3%. For the same molecule, in the data set on HER3 mRNA [4], the “Tumor HER3 mRNA relative to saline treated controls” value amounted to 107.3 ± 17%. The “Tumor Hif1A mRNA relative to saline treated controls” value in the data set on HIF-1 alpha mRNA was found to be 100.3 ± 7.5%. For the same molecule, the “Liver HER3 mRNA relative to saline treated controls” value with HER3 mRNA [5] worked out at 44.3 ± 10.6%.

With “CSASTScSaScStScStSgSgStSgSTSGST (l[5mC]*lA*lT*dC*dA*dC*dT*dC*dT*dG*dG*dT*dG*lT*lG*lT; antisense) [SEQ ID NO: 195]”, the “HER3: percentage down-regulation of mRNA relative to mock transfected cells” value in the data set with human HER3 mRNA [6] is 64.4%*.
